The source of these data is patent US20090030049A1, “MEDICAMENT FOR GENITAL HERPES” (ASTELLAS PHARMA INC., priority 2005, published 2009).

For this assay, the system named is HSV-2 strain G. The assay can be described thus: Therapeutic activity upon guinea pig HSV-2 genital herpes model (vaginal lesion score). The class given is in vivo. As to conditions: oral, twice a day, dose inhibiting 50% of average vaginal lesion score of placebo group at 9 days after infection, Hartley female guinea pig; for ED50: Human alphaherpesvirus 2, in Cavia porcellus, started after development of vaginal lesions (day 4 to 8 after infection), read-out: Lesion inhibitory activity (ED50; mg/kg) (4 to 8 days of administration after infection); for Comparative test (administration before the development of lesions) (ED50; mg/kg) (0 to 4 days of administration after infection): started 3 hours after HSV-2 infection until 4 days after infection. Here is the method: In vivo activity of the pharmaceutical composition of the present invention was tested using an HSV-2 infected guinea pig vagina genital herpes model in reference to the method of L. Stanberry et al. (Journal of Infectious Disease, 1982, 146, 397-404). An absorbent cotton swab was impregnated with an HSV-2 virus suspension (HSV-2 strain G 1.25×10^5 PFU/ml) and inserted into the vagina of a Hartley female guinea pig (4 weeks of age) under diethyl ether anesthesia, thereby infecting it with HSV-2. Vagina lesions and general conditions caused by the HSV-2 infection were scored based on the following 6 steps and evaluated every day from the infected day (0 day) to 9 days after the infection.
Score 1: formation of approximately 1 or 2 small blisters which can be observed with the naked eye
Score 2: formation of blisters in 10 to 50% per vaginal visible area
Score 3: formation of blisters in 50 to 100% per vaginal visible area
Score 4: formation of ulcers in 10 to 50% per vaginal visible area
Score 5: formation of ulcers in 50 to 100% per vaginal visible area
Score 6: paralysis of hind legs or death
Only guinea pigs in which the vaginal lesion score was judged to be 1 or 2 and development of lesions therefore was found were selected after the development of vaginal lesions by HSV-2 infection, namely 4 days after the infection, their grouping was carried out in such a manner that average values of the scores became even, and then administration of each compound to be tested was started. Each compound to be tested was made into a methyl cellulose suspension and orally administered twice a day for 5 days of from the 4th day to 8th day after the infection. Additionally, in order to compare degrees of the therapeutic effect due to difference in the administration starting period, a comparative test was simultaneously carried out in which the administration was started before the development of vaginal lesions (3 hours after the HSV-2 infection) and the administration was carried out in the same manner until 4 days after the infection. Each test was carried out using 10 animals per group of the guinea pigs and using VCV as the comparative compound.
Regarding the average vaginal lesion score of 9 days after the HSV-2 infection, the dose of each compound to be tested which inhibits 50% of the score of the placebo administration group (ED50 value; mg/kg, twice a day) was calculated, with the results shown in the following table.

Where “and” joins values, the source holds several entries; their conditions need not be identical. Equal values may be shown once. Where only a bound is given, the exact number is not on record here.

A word on the ED50: it is the midpoint of the dose-response relation. With `Cc1ccc(N(CC(=O)Nc2ccc(-c3cocn3)cc2)C(=O)C2CCS(=O)(=O)CC2)cc1` [Preparation 2, N-(4-methylphenyl)-N-(2-{[4-(1,3-oxazol-4-yl)phenyl]amino}-2-oxoethyl)tetrahydro-2H-thiopyran-4-carboxamide 1,1-dioxide], the ED50 was 3.1 mg/kg and the “Comparative test (administration before the development of lesions) (ED50; mg/kg) (0 to 4 days of administration after infection)” value (“Comparative test” for short) amounted to 1.3 mg/kg.

On to `Cc1cccc(C)c1N(CC(=O)Nc1ccc(-c2ncon2)cc1)C(=O)C1CCS(=O)(=O)CC1` [Preparation 27, N-(2,6-dimethylphenyl)-N-(2-{[4-(1,2,4-oxadiazol-3-yl)phenyl]amino}-2-oxoethyl)tetrahydro-2H-thiopyran-4-carboxamide 1,1-dioxide], for which the ED50 was 2.5 mg/kg and the “Comparative test” value is 1.2 mg/kg.

Take `CC(C)[C@H](N)C(=O)OCCOCn1cnc2c(=O)[nH]c(N)nc21` [VCV, valacyclovir, reference compound]: the ED50 is at least 300 mg/kg; the “Comparative test” value is 117 mg/kg and 50 mg/kg.
